Results on seven compounds are retold here after patent US10000791B2, “Measurement method for human pancreatic lipase activity” (ASAHI KASEI PHARMA CORPORATION, priority 2013, dated 2018).

For test [1], the system named is human pancreatic lipase. As to the kind of experiment: pH dependence of human pancreatic lipase activity in the presence of bile acids (diglyceride substrate, UV method). To be noted: for degree of the activation of human pancreatic lipase: conjugated bile acid singly, 40 mmol/L in R-1. The test is classed as biochemical. As to the method: After weighing 1,2-dioleoyl glycerol (DODG) (manufactured by Nippon Fine Chemical Co., Ltd.) to attain a concentration of 9.32 mmol/L when dissolved, 1% polyoxyethylene (10) nonyl phenyl ether (NPE) (manufactured by Wako Pure Chemical Industries Ltd.) containing 1.66 mmol/L of MES (manufactured by Dojindo Laboratories) was added thereto to be dissolved therein by stirring at 37° C. for 2 hours, and the resultant was allowed to stand still in ice for 2 hours or more. The thus obtained solution was used as a substrate original liquid.
The above-described diglyceride original liquid was used for preparing a “substrate stock solution” having the following composition:
A “first reaction solution (R-1)” having the following composition was prepared:
A “second reaction solution (R-2)” having the following composition was prepared:
A “second reaction solution (R-2) for sample blank” having the following composition was prepared:
(§1) A mixture of the substrate stock solution and the R-1 in a proportion of 1:2 was used as a first reagent. The R-2 was directly used as a second reagent. As a sample, pooled serum or a control sample (a control containing a pancreatic lipase) was used. A proportion in amount among the sample, the first reagent and the second reagent was set as sample:first reagent:second reagent of 0.01 ml:0.18 ml:0.06 ml. The sample was added to the first reagent, the resultant mixture was heated at 37° C. for 5 minutes, the second reagent was added thereto, and a change rate of an absorbance at 340 nm based on reduced NADP was obtained at 37° C. from 3 minutes after the addition of the second reagent to 4 minutes after the addition, and then, the lipase activity was calculated by using a molecular extinction coefficient of 6300 L/mol·cm of the reduced NADP. Besides, as a sample blank, saline was used instead of a sample, an absorbance was measured by using the reagent for sample blank obtained by removing MGLPII from the second reagent, and a difference between the thus measured two values was defined as an enzyme activity value. For the measurement, Hitachi automatic analyzer Model H7170 or H7080 was used.
As a conjugated bile acid to be added to the R-1, sodium taurodeoxycholate (NaTDCA), sodium glycodeoxycholate (NaGDCA), sodium glycochenodeoxycholate (NaGCDCA), sodium taurochenodeoxycholate (NaTCDCA), sodium glycocholate (NaGCA), sodium taurocholate (NaTCA) and sodium tauroursodeoxycholate (NaTUDCA) all in a concentration of 40 mmol/L were selected, the R-1 was adjusted, by using BES (manufactured by Dojindo Laboratories) respectively to pH 6.8, 7.0, 7.2, 7.4, 7.8, and 8.0, and the human pancreatic lipase activity was measured by using these. The pH of the R-2 was adjusted to be equal to that of the R-1.
It is noted that the concentration of each non-conjugated bile acid was set to be 24 mmol/L in the R-1. Besides, BES was used for adjusting pH to 7.2, 7.6, 7.8 and 8.0, and Bicine was used for adjusting pH to 8.2 and 8.5.
(§2) Similarly to Example 1, a mixture of the substrate stock solution and the R-1 in a proportion of 1:2 was used as a first reagent. Except for this, the measurement was performed in the same manner as in Example 1.
Besides, NaTCA was also combined with a conjugated bile acid, NaTDCA, to examine the pH for giving a maximum value of the human pancreatic lipase activity (the apparent optimum pH). It is noted that a BES buffer was used for adjusting pH to 6.9, 7.2 and 7.7, and a Bicine buffer was used for adjusting pH to 7.95 and 8.2. In each of the combinations of NaGCA/NaDCA, NaTCA/NaDCA, NaTUDCA/NaDCA and NaTCA/NaTDCA, the concentration of each bile acid was set to 20 mmol/L in the R-1. With respect to the combination of NaTCA and NaTDCA, a concentration of 40 mmol/L of NaTDCA was used as a control.
The compositions of the reagents and the measurement operation were the same as those of Example 2.

The test system of test [2] is human pancreatic lipase. As to the kind of experiment: lipase activity measured in control, normal and heparin-administered samples with each reagent (1,2-dioleoyl glycerol, UV method; Liquitech Lipase Color II for verification). Format: biochemical. The arrangement: lipase activity relative to (1) comparative example NaDCA (Table 1): concentration or dose not given beside the values. To be noted: for lipase activity (Table 1): NaDCA pH 8.15, other bile salts pH 7.0; for lipase activity relative to (1) comparative example NaDCA (Table 1): pH 7.0; for lipase activity (Table 2): comparative example pH 8.15, present example pH 7.1, bile acid 40 mmol/L in R-1. As to the method:
as §1, §2
A commercially available reagent for a resorufin colorimetric method, “Liquitech Lipase Color II” manufactured by Roche Diagnostics using 1,2-O-dilauryl-rac-glycerol-3-glutaric acid-(6-methylresorufin)ester (DGGR), which is regarded not to be influenced by a non-pancreatic lipase, such as a lipoprotein lipase or a hepatic lipase, appearing in blood due to administration of heparin, was used for verifying the effect of the present example. “Liquitech Lipase Color II” was used in accordance with the package insert, and a special calibrator was used for calculating the enzyme activity. […] The concentration of each bile acid used in the present example was set to be the same as that in the comparative example.
As samples, a control, non-heparin-administered samples (normal samples), and heparin-administered samples were used.
The compositions of the reagents were the same as those of Example 2. As a comparative example, NaDCA (in a concentration of 40 mmol/L in the R-1) was used as the bile acid, and the reaction solution was adjusted to pH 8.15 (by the Bicine buffer) for measuring a heparin-administered sample.
It is noted that CRM-001b containing a human pancreatic recombinant lipase dissolved not in distilled water but in a pooled serum was used as the calibrator to calculate the lipase activity.
As a bile acid of the present example and a reference example, NaTDCA was selected, and the pH dependence with the pH of a reaction solution changed in a range of 6.2 to 7.6 was examined. It is noted that a case of pH 7.6 was used as the reference example. An MES buffer was used for adjusting pH to 6.2 and 6.4, and the BES buffer was used for adjusting the other pHs. As samples, (six) control samples (controls each containing a pancreatic lipase) and (nine) heparin-administered samples were used. As a comparative example, NaDCA (in a concentration of 40 mmol/L in the R-1) was used as the bile acid, and a reaction solution having pH 8.15 (the Bicine buffer) was used. Besides, “Liquitech Lipase Color II” manufactured by Roche Diagnostics was used for verifying the effect of the present example.

`C[C@H](CCC(=O)[O-])[C@H]1CC[C@H]2[C@@H]3[C@H](O)C[C@@H]4C[C@H](O)CC[C@]4(C)[C@H]3C[C@H](O)[C@]12C.[Na+]` [NaCA, sodium cholate]: the “signal of human pancreatic lipase activity” value with human pancreatic lipase [1] (24 mmol/L in R-1, compared with NaDCA) was “merely a slight signal”.

For `C[C@H](CCC(=O)[O-])[C@H]1CC[C@H]2[C@@H]3[C@H](O)C[C@@H]4C[C@H](O)CC[C@]4(C)[C@H]3CC[C@]12C.[Na+]` [NaCDCA, sodium chenodeoxycholate], the “pH for giving a maximum value of the activity (apparent optimum pH)” value with human pancreatic lipase [1] (pooled serum, non-conjugated bile acid singly, 24 mmol/L in R-1, pH 7.2-8.5) is “about 7.7”.

Take `C[C@H](CCC(=O)NCC(=O)[O-])[C@H]1CC[C@H]2[C@@H]3[C@H](O)C[C@@H]4C[C@H](O)CC[C@]4(C)[C@H]3C[C@H](O)[C@]12C.[Na+]` [NaGCA, sodium glycocholate]: the “degree of the activation of human pancreatic lipase” value (“degree” below) in the test with human pancreatic lipase [1] (pooled serum) is given as “below detection limit”.

As for `C[C@H](CCC(=O)NCC(=O)[O-])[C@H]1CC[C@H]2[C@@H]3CC[C@@H]4C[C@H](O)CC[C@]4(C)[C@H]3C[C@H](O)[C@]12C.[Na+]` [NaGDCA, sodium glycodeoxycholate], the “lipase activity (Table 1)” value in the test on human pancreatic lipase [2] (Normal sample 1) was 47.1 U/L; with human pancreatic lipase [2] (Normal sample 2), 91.5 U/L; in the test with human pancreatic lipase [2] (Normal sample 3) it was 49.7 U/L; in the test on human pancreatic lipase [2] (Normal sample 4), 32.9 U/L; in the test on human pancreatic lipase [2] (Normal sample 5), 36.2 U/L; in the test on human pancreatic lipase [2] (sample Heparin 1), 39.1 U/L. The “lipase activity (Table 1)” value turned out to be 47.5 U/L with human pancreatic lipase [2] (sample Heparin 2); 36.9 U/L with human pancreatic lipase [2] (sample Heparin 3); 28.2 U/L with human pancreatic lipase [2] (sample Heparin 4); 23.8 U/L in the test on human pancreatic lipase [2] (sample Heparin 5); 28.9 U/L in the test on human pancreatic lipase [2] (sample Heparin 6); 58.0 U/L with human pancreatic lipase [2] (sample Heparin 7). Besides, the “lipase activity (Table 1)” value is listed as 43.9 U/L in the test with human pancreatic lipase [2] (sample Heparin 8), 81.0 U/L with human pancreatic lipase [2] (sample Heparin 9), 52.2 U/L in the test on human pancreatic lipase [2] (sample PRECINORM) and 124.6 U/L in the test with human pancreatic lipase [2] (sample PRECIPATH). The “lipase activity relative to (1) comparative example NaDCA (Table 1)” value came to 120.6% with human pancreatic lipase [2] (Normal sample 1); 96.3% in the test on human pancreatic lipase [2] (Normal sample 2); 106.5% with human pancreatic lipase [2] (Normal sample 3); 75.8% with human pancreatic lipase [2] (Normal sample 4); 89.0% in the test with human pancreatic lipase [2] (Normal sample 5); 50.9% in the test with human pancreatic lipase [2] (sample Heparin 1). Moreover, the “lipase activity relative to (1) comparative example NaDCA (Table 1)” value was 54.8% in the test on human pancreatic lipase [2] (sample Heparin 2); 32.7% with human pancreatic lipase [2] (sample Heparin 3); 27.8% in the test with human pancreatic lipase [2] (sample Heparin 4); 34.8% in the test on human pancreatic lipase [2] (sample Heparin 5); 41.8% with human pancreatic lipase [2] (sample Heparin 6); 42.0% in the test on human pancreatic lipase [2] (sample Heparin 7). Moreover, the “lipase activity relative to (1) comparative example NaDCA (Table 1)” value with human pancreatic lipase [2] (sample Heparin 8) came out at 34.8%; in the test with human pancreatic lipase [2] (sample Heparin 9), 48.0%; in the test with human pancreatic lipase [2] (sample PRECINORM) it was 102.4%; in the test with human pancreatic lipase [2] (sample PRECIPATH), 97.4%.

Turning to `C[C@H](CCC(=O)NCCS(=O)(=O)O)[C@H]1CC[C@H]2[C@@H]3[C@H](O)C[C@@H]4C[C@H](O)CC[C@]4(C)[C@H]3C[C@H](O)[C@]12C` [NaTCA, sodium taurocholate], the “degree” value with human pancreatic lipase [1] (pooled serum) is recorded as “below detection limit”.

Regarding `C[C@H](CCC(=O)NCCS(=O)(=O)[O-])[C@H]1CC[C@H]2[C@@H]3[C@@H](O)C[C@@H]4C[C@H](O)CC[C@]4(C)[C@H]3CC[C@]12C.[Na+]` [NaTCDCA, sodium taurochenodeoxycholate], the “lipase activity (Table 2)” value in the test with human pancreatic lipase [2] (sample Heparin 1) is given as 54.5 U/L; in the test on human pancreatic lipase [2] (sample Heparin 2), 31.7 U/L; in the test on human pancreatic lipase [2] (sample Heparin 3) it was 48.1 U/L.

In the case of `C[C@H](CCC(=O)NCCS(=O)(=O)[O-])[C@H]1CC[C@H]2[C@@H]3[C@@H](O)C[C@@H]4C[C@H](O)CC[C@]4(C)[C@H]3CC[C@]12C.[Na+]` [NaTUDCA, sodium tauroursodeoxycholate], the “degree” value in the test with human pancreatic lipase [1] (pooled serum) is given as “below detection limit”.
